Data taken from patent US10344060B2 (priority 2013, dated 2019).

Molecular target: hNav1.7 (Homo sapiens, UniProt Q15858)
Assay: cell-based
Type: cell-based
Details: Table 12; PatchXpress, tonic block; read-out: PX hNav1.7 Tonic IC50

Chain of hNav1.7 (Q15858 whole entry): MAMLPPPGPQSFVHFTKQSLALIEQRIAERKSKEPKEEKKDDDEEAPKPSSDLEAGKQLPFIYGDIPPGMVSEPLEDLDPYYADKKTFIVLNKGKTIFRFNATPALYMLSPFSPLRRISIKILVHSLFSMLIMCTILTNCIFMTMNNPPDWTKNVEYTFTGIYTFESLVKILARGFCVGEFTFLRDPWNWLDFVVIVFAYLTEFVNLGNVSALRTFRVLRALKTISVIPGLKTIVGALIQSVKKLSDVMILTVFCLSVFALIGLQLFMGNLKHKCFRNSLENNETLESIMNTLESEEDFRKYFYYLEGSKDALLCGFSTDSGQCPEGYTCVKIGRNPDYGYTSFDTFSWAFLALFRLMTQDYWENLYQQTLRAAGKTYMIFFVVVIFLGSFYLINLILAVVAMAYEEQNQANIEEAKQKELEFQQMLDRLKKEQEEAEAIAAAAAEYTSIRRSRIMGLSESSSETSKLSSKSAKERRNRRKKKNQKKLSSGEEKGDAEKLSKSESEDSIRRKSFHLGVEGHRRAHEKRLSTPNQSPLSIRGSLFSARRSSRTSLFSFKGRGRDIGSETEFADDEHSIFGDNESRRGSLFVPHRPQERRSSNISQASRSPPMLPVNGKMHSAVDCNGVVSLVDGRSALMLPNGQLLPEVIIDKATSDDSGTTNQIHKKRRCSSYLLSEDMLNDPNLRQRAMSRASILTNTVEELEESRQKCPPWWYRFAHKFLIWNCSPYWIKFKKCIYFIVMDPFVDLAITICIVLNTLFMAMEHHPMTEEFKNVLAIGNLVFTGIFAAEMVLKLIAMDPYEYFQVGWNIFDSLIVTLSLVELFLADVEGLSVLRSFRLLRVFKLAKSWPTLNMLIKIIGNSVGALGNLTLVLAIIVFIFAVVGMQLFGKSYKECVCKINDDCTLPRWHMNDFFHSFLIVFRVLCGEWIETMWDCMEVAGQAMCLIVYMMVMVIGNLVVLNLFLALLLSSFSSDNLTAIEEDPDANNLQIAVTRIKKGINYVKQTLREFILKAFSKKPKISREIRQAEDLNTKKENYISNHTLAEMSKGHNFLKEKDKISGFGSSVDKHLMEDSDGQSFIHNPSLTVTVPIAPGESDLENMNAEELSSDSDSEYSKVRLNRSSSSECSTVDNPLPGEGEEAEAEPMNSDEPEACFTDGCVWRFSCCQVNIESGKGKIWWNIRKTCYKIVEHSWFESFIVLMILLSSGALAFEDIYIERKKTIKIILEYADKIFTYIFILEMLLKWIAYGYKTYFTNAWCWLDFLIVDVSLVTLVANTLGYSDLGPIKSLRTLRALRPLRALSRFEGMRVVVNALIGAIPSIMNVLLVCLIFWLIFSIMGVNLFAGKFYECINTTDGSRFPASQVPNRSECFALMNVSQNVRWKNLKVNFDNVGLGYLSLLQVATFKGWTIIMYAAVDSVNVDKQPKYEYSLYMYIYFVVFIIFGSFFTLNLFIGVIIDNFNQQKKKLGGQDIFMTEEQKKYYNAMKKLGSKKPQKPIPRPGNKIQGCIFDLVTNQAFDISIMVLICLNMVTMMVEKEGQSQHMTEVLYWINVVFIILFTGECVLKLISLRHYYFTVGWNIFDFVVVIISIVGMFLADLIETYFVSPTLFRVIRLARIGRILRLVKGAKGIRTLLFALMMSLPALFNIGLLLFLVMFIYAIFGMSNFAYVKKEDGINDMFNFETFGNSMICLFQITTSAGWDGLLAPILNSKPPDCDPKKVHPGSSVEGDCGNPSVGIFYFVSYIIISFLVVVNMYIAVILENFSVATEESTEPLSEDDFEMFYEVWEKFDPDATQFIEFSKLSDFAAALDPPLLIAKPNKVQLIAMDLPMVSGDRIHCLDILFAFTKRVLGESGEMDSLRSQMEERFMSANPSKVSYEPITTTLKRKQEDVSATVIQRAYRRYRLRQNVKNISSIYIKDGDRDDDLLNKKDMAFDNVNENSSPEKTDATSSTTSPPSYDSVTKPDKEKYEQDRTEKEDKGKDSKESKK

Row | SMILES | IC50
1 | C#CC[C@@H]1NC(=O)[C@@H]2CSSC[C@H](NC(=O)[C@H](CCC(=O)O)NC(=O)[C@H](CCC)NC(=O)[C@@H](N)CCC(=O)O)C(=O)N[C@@H](CCC(N)=O)C(=O)N[C@@H](CCCCN)C(=O)N[C@@H](Cc3c[nH]c4ccccc34)C(=O)N[C@@H](CCCC)C(=O)N[C@@H](Cc3c[nH]c4ccccc34)C(=O)N[C@@H]([C@@H](C)O)C(=O)N[C@H]3CSSC[C@H](NC(=O)[C@H](CCCNC(=N)N)NC(=O)[C@H](CC(C)C)NC(=O)CNC1=O)C(=O)N[C@@H](CCCCN)C(=O)N[C@@H](CC(C)C)C(=O)N[C@@H](Cc1c[nH]c4ccccc14)C(=O)N[C@H](C(=O)N[C@@H](CCCNC(=N)N)C(=O)N[C@@H](CCCCN)C(=O)N[C@@H](CCC(=O)O)C(=O)N[C@H](C(N)=O)[C@@H](C)CC)CSSC[C@H](NC(=O)[C@H](C)NC(=O)[C@H](CCCNC(=N)N)NC(=O)[C@H](CCCCN)NC(=O)[C@H](CCC(=O)O)NC(=O)[C@H](CC(=O)O)NC3=O)C(=O)N2 [compound 772] | 15.2 nM
2 | C#CC[C@H](N)C(=O)N[C@@H](Cc1ccc(O)cc1)C(=O)N[C@H]1CSSC[C@@H]2NC(=O)[C@@H]3CSSC[C@@H](C(=O)N[C@@H](CCCNC(=N)N)C(=O)N[C@@H](CCCCN)C(=O)N[C@@H](CCC(=O)O)C(=O)N[C@H](C(N)=O)[C@@H](C)CC)NC(=O)[C@H](Cc4c[nH]c5ccccc45)NC(=O)[C@H](CC(C)C)NC(=O)[C@H](CCC(N)=O)NC(=O)[C@H](CSSC[C@H](NC(=O)[C@H]([C@@H](C)O)NC(=O)[C@H](Cc4c[nH]c5ccccc45)NC(=O)[C@H](CCCC)NC(=O)[C@H](Cc4c[nH]c5ccccc45)NC(=O)[C@H](CCCCN)NC(=O)[C@H](CCC(N)=O)NC1=O)C(=O)N[C@@H](CC(=O)O)C(=O)N[C@@H](CO)C(=O)N[C@@H](CCCCN)C(=O)N[C@@H](CCCNC(=N)N)C(=O)N[C@@H](C)C(=O)N3)NC(=O)[C@H](CCCNC(=N)N)NC(=O)[C@H](CC(C)C)NC(=O)CNC(=O)[C@H](CCC(=O)O)NC2=O [compound 804] | 35.3 nM
3 | C#CC[C@H](N)C(=O)N[C@@H](Cc1ccc(O)cc1)C(=O)N[C@H]1CSSC[C@@H]2NC(=O)[C@@H]3CSSC[C@@H](C(=O)N[C@@H](CCCNC(=N)N)C(=O)N[C@@H](CCCCN)C(=O)N[C@@H](CCC(=O)O)C(=O)N[C@H](C(N)=O)[C@@H](C)CC)NC(=O)[C@H](Cc4c[nH]c5ccccc45)NC(=O)[C@H](CC(C)C)NC(=O)[C@H](CCCCN)NC(=O)[C@H](CSSC[C@H](NC(=O)[C@H]([C@@H](C)O)NC(=O)[C@H](Cc4c[nH]c5ccccc45)NC(=O)[C@H](CCCC)NC(=O)[C@H](Cc4c[nH]c5ccccc45)NC(=O)[C@H](CCC(N)=O)NC(=O)[C@H](CCC(N)=O)NC1=O)C(=O)N[C@@H](CC(=O)O)C(=O)N[C@@H](CO)C(=O)N[C@@H](CCCCN)C(=O)N[C@@H](CCCNC(N)=O)C(=O)N[C@@H](C)C(=O)N3)NC(=O)[C@H](CCCNC(=N)N)NC(=O)[C@H](CC(C)C)NC(=O)CNC(=O)[C@H](CCC(=O)O)NC2=O [compound 807] | 20.9 nM
4 | C#CC[C@H](N)C(=O)N[C@@H](Cc1ccc(O)cc1)C(=O)N[C@H]1CSSC[C@@H]2NC(=O)[C@@H]3CSSC[C@@H](C(=O)N[C@@H](CCCNC(=N)N)C(=O)N[C@@H](CCCCN)C(=O)N[C@@H](CCC(=O)O)C(=O)N[C@H](C(N)=O)[C@@H](C)CC)NC(=O)[C@H](Cc4c[nH]c5ccccc45)NC(=O)[C@H](CC(C)C)NC(=O)[C@H](CCCCN)NC(=O)[C@H](CSSC[C@H](NC(=O)[C@H]([C@@H](C)O)NC(=O)[C@H](Cc4c[nH]c5ccccc45)NC(=O)[C@H](CCCC)NC(=O)[C@H](Cc4cccc5ccccc45)NC(=O)[C@H](CCCCN)NC(=O)[C@H](CCC(N)=O)NC1=O)C(=O)N[C@@H](CC(=O)O)C(=O)N[C@@H](CO)C(=O)N[C@@H](CCCCN)C(=O)N[C@@H](CCCNC(=N)N)C(=O)N[C@@H](C)C(=O)N3)NC(=O)[C@H](CCCNC(=N)N)NC(=O)[C@H](CC(C)C)NC(=O)CNC(=O)[C@H](CCC(=O)O)NC2=O [compound 841] | 70.9 nM
5 | C#CC[C@H](N)C(=O)N[C@@H](Cc1ccc(O)cc1)C(=O)N[C@H]1CSSC[C@@H]2NC(=O)[C@@H]3CSSC[C@@H](C(=O)N[C@@H](CCCNC(=N)N)C(=O)N[C@@H](CCCCN)C(=O)N[C@@H](CCC(=O)O)C(=O)N[C@H](C(N)=O)[C@@H](C)CC)NC(=O)[C@H](Cc4c[nH]c5ccccc45)NC(=O)[C@H](CC(C)C)NC(=O)[C@H](CCCCN)NC(=O)[C@H](CSSC[C@H](NC(=O)[C@H]([C@@H](C)O)NC(=O)[C@H](Cc4c[nH]c5ccccc45)NC(=O)[C@H](CCCC)NC(=O)[C@H](Cc4ccc5ccccc5c4)NC(=O)[C@H](CCCCN)NC(=O)[C@H](CCC(N)=O)NC1=O)C(=O)N[C@@H](CC(=O)O)C(=O)N[C@@H](CO)C(=O)N[C@@H](CCCCN)C(=O)N[C@@H](CCCNC(=N)N)C(=O)N[C@@H](C)C(=O)N3)NC(=O)[C@H](CCCNC(=N)N)NC(=O)[C@H](CC(C)C)NC(=O)CNC(=O)[C@H](CCC(=O)O)NC2=O [compound 842] | 21.7 nM
6 | C#CC[C@H](N)C(=O)N[C@@H](Cc1ccc(O)cc1)C(=O)N[C@H]1CSSC[C@@H]2NC(=O)[C@@H]3CSSC[C@@H](C(=O)N[C@@H](CCCNC(=N)N)C(=O)N[C@@H](CCCCN)C(=O)N[C@@H](CCC(=O)O)C(=O)N[C@H](C(N)=O)[C@@H](C)CC)NC(=O)[C@H](Cc4c[nH]c5ccccc45)NC(=O)[C@H](CC(C)C)NC(=O)[C@H](CCCCN)NC(=O)[C@H](CSSC[C@H](NC(=O)[C@H]([C@@H](C)O)NC(=O)[C@H](Cc4c[nH]c5ccccc45)NC(=O)[C@H](CCCC)NC(=O)[C@H](Cc4c[nH]c5ccc(Br)cc45)NC(=O)[C@H](CCCCN)NC(=O)[C@H](CCC(N)=O)NC1=O)C(=O)N[C@@H](CC(=O)O)C(=O)N[C@@H](CO)C(=O)N[C@@H](CCCCN)C(=O)N[C@@H](CCCNC(=N)N)C(=O)N[C@@H](C)C(=O)N3)NC(=O)[C@H](CCCNC(=N)N)NC(=O)[C@H](CC(C)C)NC(=O)CNC(=O)[C@H](CCC(=O)O)NC2=O [compound 845] | 53.5 nM
7 | C#CC[C@H](N)C(=O)N[C@@H](Cc1ccc(O)cc1)C(=O)N[C@H]1CSSC[C@@H]2NC(=O)[C@@H]3CSSC[C@@H](C(=O)N[C@@H](CCCNC(=N)N)C(=O)N[C@@H](CCCCN)C(=O)N[C@@H](CCC(=O)O)C(=O)N[C@H](C(N)=O)[C@@H](C)CC)NC(=O)[C@H](Cc4c[nH]c5ccccc45)NC(=O)[C@H](CC(C)C)NC(=O)[C@H](CCCCN)NC(=O)[C@H](CSSC[C@H](NC(=O)[C@H]([C@@H](C)O)NC(=O)[C@H](Cc4cccc5ccccc45)NC(=O)[C@H](CCCC)NC(=O)[C@H](Cc4c[nH]c5ccccc45)NC(=O)[C@H](CCCCN)NC(=O)[C@H](CCC(N)=O)NC1=O)C(=O)N[C@@H](CC(=O)O)C(=O)N[C@@H](CO)C(=O)N[C@@H](CCCCN)C(=O)N[C@@H](CCCNC(=N)N)C(=O)N[C@@H](C)C(=O)N3)NC(=O)[C@H](CCCNC(=N)N)NC(=O)[C@H](CC(C)C)NC(=O)CNC(=O)[C@H](CCC(=O)O)NC2=O [compound 846] | 825 nM
8 | C#CC[C@H](N)C(=O)N[C@@H](Cc1ccc(O)cc1)C(=O)N[C@H]1CSSC[C@@H]2NC(=O)[C@@H]3CSSC[C@@H](C(=O)N[C@@H](CCCNC(=N)N)C(=O)N[C@@H](CCCCN)C(=O)N[C@@H](CCC(=O)O)C(=O)N[C@H](C(N)=O)[C@@H](C)CC)NC(=O)[C@H](Cc4c[nH]c5ccccc45)NC(=O)[C@H](CC(C)C)NC(=O)[C@H](CCCCN)NC(=O)[C@H](CSSC[C@H](NC(=O)[C@H]([C@@H](C)O)NC(=O)[C@H](Cc4ccc5ccccc5c4)NC(=O)[C@H](CCCC)NC(=O)[C@H](Cc4c[nH]c5ccccc45)NC(=O)[C@H](CCCCN)NC(=O)[C@H](CCC(N)=O)NC1=O)C(=O)N[C@@H](CC(=O)O)C(=O)N[C@@H](CO)C(=O)N[C@@H](CCCCN)C(=O)N[C@@H](CCCNC(=N)N)C(=O)N[C@@H](C)C(=O)N3)NC(=O)[C@H](CCCNC(=N)N)NC(=O)[C@H](CC(C)C)NC(=O)CNC(=O)[C@H](CCC(=O)O)NC2=O [compound 847] | 470 nM
9 | C#CC[C@H](N)C(=O)N[C@@H](Cc1ccc(O)cc1)C(=O)N[C@H]1CSSC[C@@H]2NC(=O)[C@@H]3CSSC[C@@H](C(=O)N[C@@H](CCCNC(=N)N)C(=O)N[C@@H](CCCCN)C(=O)N[C@@H](CCC(=O)O)C(=O)N[C@H](C(N)=O)[C@@H](C)CC)NC(=O)[C@H](Cc4c[nH]c5ccccc45)NC(=O)[C@H](CC(C)C)NC(=O)[C@H](CCCCN)NC(=O)[C@H](CSSC[C@H](NC(=O)[C@H]([C@@H](C)O)NC(=O)[C@H](Cc4c[nH]c5ccc(Br)cc45)NC(=O)[C@H](CCCC)NC(=O)[C@H](Cc4c[nH]c5ccccc45)NC(=O)[C@H](CCCCN)NC(=O)[C@H](CCC(N)=O)NC1=O)C(=O)N[C@@H](CC(=O)O)C(=O)N[C@@H](CO)C(=O)N[C@@H](CCCCN)C(=O)N[C@@H](CCCNC(=N)N)C(=O)N[C@@H](C)C(=O)N3)NC(=O)[C@H](CCCNC(=N)N)NC(=O)[C@H](CC(C)C)NC(=O)CNC(=O)[C@H](CCC(=O)O)NC2=O [compound 850] | 540 nM
10 | C#CC[C@H](N)C(=O)N[C@@H](Cc1ccc(O)cc1)C(=O)N[C@H]1CSSC[C@@H]2NC(=O)[C@@H]3CSSC[C@@H](C(=O)N[C@@H](CCCNC(=N)N)C(=O)N[C@@H](CCCCN)C(=O)N[C@@H](CCC(=O)O)C(=O)N[C@H](C(N)=O)[C@@H](C)CC)NC(=O)[C@H](Cc4cccc5ccccc45)NC(=O)[C@H](CC(C)C)NC(=O)[C@H](CCCCN)NC(=O)[C@H](CSSC[C@H](NC(=O)[C@H]([C@@H](C)O)NC(=O)[C@H](Cc4c[nH]c5ccccc45)NC(=O)[C@H](CCCC)NC(=O)[C@H](Cc4c[nH]c5ccccc45)NC(=O)[C@H](CCCCN)NC(=O)[C@H](CCC(N)=O)NC1=O)C(=O)N[C@@H](CC(=O)O)C(=O)N[C@@H](CO)C(=O)N[C@@H](CCCCN)C(=O)N[C@@H](CCCNC(=N)N)C(=O)N[C@@H](C)C(=O)N3)NC(=O)[C@H](CCCNC(=N)N)NC(=O)[C@H](CC(C)C)NC(=O)CNC(=O)[C@H](CCC(=O)O)NC2=O [compound 851] | 32 nM
